Measurements: article PMC5882690, “Mechanical characteristics of beta sheet-forming peptide hydrogels are dependent on peptide sequence, concentration and buffer composition” (Royal Society Open Science, 2018)
Where a SMILES comes first, the peptide text is derived from it.

Assays:
[1] = literature, cited from earlier work
From the text: The topographical structure of SAP hydrogels is important for the three-dimensional arrangement of cells within scaffolds. Zhang et al. state that the fibres of SAP hydrogels resemble the nanometre scale of natural polymer networks and thus allow three-dimensional cell growth. […] (figure 1). […] Moreover, they observed the formation fibre entanglements with diameters of 30 nm. The phenomenon of fibril clustering was also reported by Zhang et al. for the peptides KFE8 and KLD12, characterized by a typical single fibre width of 7 nm and thicker diameters for the bundles of fibres.

[2] = SAP hydrogel dissolution in PBS or TYSB medium (peptide content of supernatant); format: physicochemical; conditions: 37°C, 20 mg ml^-1 P11-4, 15 mg ml^-1 others, Qubit Protein Assay, mean ± SD, n = 3
Protocol: (§1) SAP hydrogel dissolution and degradation properties of the peptides in the presence and absence of neutrophilic elastase and microorganisms were measured by determining the peptide content of the supernatant. Therefore, SAPs were assembled in PBS at concentrations of 20 mg ml^−1 for P11-4 and 15 mg ml^−1 for P11-8, P11-13/14 and P11-28/29. The assay was performed in a 96-well plate with gel volumes of 100 µl well^−1. 86 units ml^−1 elastase (Innovative Research, USA) (100 µg ml^−1) were added to the assembled peptides in PBS solution. After 24 h incubation at 37°C and 5% CO2, 10 µl of the supernatant was sterilely removed after 24 and 168 h and measured indirectly by monomeric peptide concentration in the supernatant using the Qubit® Protein Assay (Q33211; Thermo Fisher; fluorescence at 485/590 nm) and transferred back for the remainder of the experiment allowing peptide hydrogel degradation measurement without disturbing the hydrogel to buffer fluid balance. The measurements are based on the fact that degraded peptides cause disassembly of the fibrils, as assembly rules are no longer given, resulting in an increase in monomeric SAP in solution. SAP concentrations were calculated based on respective peptide standard curves. For data analysis, SAP concentrations measured in the supernatant were calculated as a percentage of the specific starting concentrations of each peptide system. Statistical analysis was done using a two-way ANOVA followed by Sidak's multiple comparison test.
The stability of the hydrogels versus bacterial degradation was tested by the exposure to the bacterial strains Streptococcus mutans (S. mutans), Pseudomonas aeruginosa (P. aeruginosa) and Staphylococcus aureus (S. aureus; all from Leibniz-Institut DSMZ GmbH). Therefore, the bacterial strains were applied (10^6 CFU ml^−1) on the top of each gel (20 mg ml^−1 for P11-4 and 15 mg ml^−1 for P11-8, P11-13/14 and P11-28/29) in their respective media (Neurobasal medium for P. aeruginosa (Thermo Fisher), Tryptic Soy Broth (TYSB) medium for S. mutans and S. aureus). After 1 and 7 days of incubation at 37°C, 10 µl of each supernatant was analysed subsequent to centrifugation of the samples using the Qubit® Protein Assay. Calculations were performed as described previously for the elastase degradation study. Statistical analysis was performed with Graphpad Prism version 6.0 using a two-way ANOVA followed by Dunnett's multiple comparison test.

[3] = Fibre width of dried SAP hydrogels by scanning electron microscopy; format: physicochemical; conditions: SEM of critical-point-dried hydrogel, 15 mg ml^-1 in Tris–NaCl, ionic strength 140 mM, pH 7.2–8.0, assembled overnight; 25 fibre widths per picture, ImageJ; mean ± SD
Protocol: Nanofibrillar structure of SAP hydrogels was formed for scanning electron microscopy (SEM) (Zeiss SUPRA® 40VP) at a concentration of 15 mg ml^−1 in Tris–NaCl buffer to a final ionic strength of 140 mM and a final pH of 7.2–8.0, as described in table 1. SAP hydrogels were assembled overnight. Self-assembly was apparent due to the gelation and β-sheet formation of the fibrillar structure as described by Aggeli et al. and Carrick et al. (by circular dichroism, Fourier transform infrared spectroscopy and transmission electron microscopy) and was further confirmed in the present study for P11-4 and P11-8 (see electronic supplementary material, figures S4, S6 and S7). SAP hydrogels were fixed with a glutaraldehyde solution (4% in borate buffer, using 0.1 ml per 0.1 ml peptide hydrogel) for 24 h. Gels were then dehydrated by increasing ethanol concentration in steps (25%, 50%, 60%, 70%, 80%, 90%, 100% ethanol) at 15 min intervals. The last step (100% ethanol) was repeated three times. Afterwards, critical point drying (Balzers Union, CPD020) was applied to stabilize the natural three-dimensional network structure. Finally, the network structures were glued on an SEM stub with carbon tape and sputter coated with 2.5 nm gold–palladium (Thermo VG Scientific, Polaron, SC7620). […] Fibre diameters were analysed with IMAGEJ software. Twenty-five fibre widths were measured for each picture.

[4] = target: T1, human neutrophil elastase (Homo sapiens, UniProt P08246); assay: SAP hydrogel degradation by human neutrophil elastase; format: in vitro ADME; conditions: human neutrophil elastase 100 µg ml^-1 (86 units ml^-1) in PBS, 37°C, 5% CO2, 20 mg ml^-1 P11-4, 15 mg ml^-1 others, Qubit Protein Assay, mean ± SD, n = 3
T1 construct: purchased Innovative Research, USA
T1 sequence (P08246 30-267): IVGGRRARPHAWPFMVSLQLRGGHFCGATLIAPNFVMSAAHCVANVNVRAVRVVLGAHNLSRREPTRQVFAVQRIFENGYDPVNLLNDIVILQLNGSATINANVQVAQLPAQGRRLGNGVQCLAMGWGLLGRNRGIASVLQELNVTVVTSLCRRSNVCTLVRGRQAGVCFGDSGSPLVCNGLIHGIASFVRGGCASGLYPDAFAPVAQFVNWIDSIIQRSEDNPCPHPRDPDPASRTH
Protocol: as §1

Compound: CC(=O)N[C@@H](CCC(N)=O)C(=O)N[C@@H](CCC(N)=O)C(=O)N[C@@H](CCCNC(=N)N)C(=O)N[C@@H](Cc1ccccc1)C(=O)N[C@@H](CCC(=O)O)C(=O)N[C@@H](Cc1c[nH]c2ccccc12)C(=O)N[C@@H](CCC(=O)O)C(=O)N[C@@H](Cc1ccccc1)C(=O)N[C@@H](CCC(=O)O)C(=O)N[C@@H](CCC(N)=O)C(=O)N[C@@H](CCC(N)=O)C(N)=O [P11-4, CH3CO-QQRFEWEFEQQ-NH2] (Ac-QQRFEWEFEQQ-NH2)
- fibril width ([1]; P11-4 and P11-8 prepared in NaCl): 14 nm
- diameter of fibre entanglements ([1]; prepared in NaCl): 30 nm
- relative peptide amount in supernatant (% of peptide starting concentration) ([2]; Medium (TYSB), 1 d): 0.4± 0.1%
- relative peptide amount in supernatant (% of peptide starting concentration) ([2]; Medium (TYSB), 7 d): 4.6± 2.5%
- relative peptide amount in supernatant (% of peptide starting concentration) ([2]; PBS, 1 d, gel assembled in PBS, 100 µl, fluorescence 485/590 nm): 10.6± 5.7%
- relative peptide amount in supernatant (% of peptide starting concentration) ([2]; PBS, 7 d, gel assembled in PBS, 100 µl, fluorescence 485/590 nm): 9.4± 4.4%
- mean fibre width [3]: 32 ± 6.6 nm
- relative peptide amount in supernatant (% of peptide starting concentration) ([4]; 1 d): 14.7± 2.8%
- relative peptide amount in supernatant (% of peptide starting concentration) ([4]; 7 d): 12.8± 5.8%
